Laboratory results as given in US8877707B2, “Inhibitors of HCV NS5A” (Presidio Pharmaceuticals, Inc., priority 2010, dated 2014).
Read-outs that look alike come from different tables or passages of the source.

Test system: HCV genotype 1b replicon in Huh 7 cells
Experiment: HCV replicon assay (1b_Huh-Luc/Neo-ET cell line, luciferase readout)
Assay type: cell-based
Conditions: Hepatitis C virus, read-out: Inhibition of HCV genotype 1b
In short: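 Replicon level was read as luciferase signal after 72 h compound exposure, triplicate wells, starting the day after cells were plated. Cell line: 1b_Huh-Luc/Neo-ET. Values normalised to control as percent, and EC50 fitted with a variable-slope sigmoid; determinations repeated.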

[1] = Table 1, genotype 1b replicon, Huh 7 cells, 72 h, luciferase
[2] = Table 2, genotype 1b replicon, Huh 7 cells, 72 h, luciferase

## COC(=O)N[C@@H](C(=O)N1CCC[C@H]1c1nc(-c2ccc3cc(-c4ccc(-c5cnc([C@@H]6CCCN6C(=O)[C@H](NC(=O)OC)C(C)C)[nH]5)cc4)ccc3c2)c[nH]1)C(C)C [compound 2]
[1]
  EC50: 1 to 9.9 nM

## COC(=O)N[C@H](C(=O)N1CCC[C@H]1c1nc(-c2ccc3cc(-c4ccc(-c5cnc([C@@H]6CCCN6C(=O)[C@H](NC(=O)OC)c6ccccc6)[nH]5)cc4F)ccc3c2)c[nH]1)C1CCOCC1 [compound 114]
[1]
  EC50: < 1 nM

## COC(=O)N[C@@H](C)C(=O)N1CCC[C@H]1c1ncc(-c2ccc3nc(-c4ccc(-c5cnc([C@@H]6CCCN6C(=O)[C@H](NC(=O)OC)c6ccccc6)[nH]5)cc4)ccc3c2)[nH]1 [compound 491]
Huh-7, HCV 1b replicon
  EC50: < 1 nM

## COC(=O)N[C@@H](C(=O)N1CCC[C@H]1c1ncc(-c2ccc3cc(-c4ccc5nc([C@@H]6CCCN6C(=O)[C@H](NC(=O)OC)C6=CCC=CC6)[nH]c5n4)ccc3c2)[nH]1)C1=CCC=CC1 [compound 523]
Huh-7, HCV 1b replicon
  EC50: < 1 nM

## COC(=O)N[C@H](C(=O)N1CCC[C@H]1c1ncc(-c2ccc3nc(-c4ccc5nc([C@@H]6CCCN6C(=O)[C@@H](NC(=O)OC)C6CCCCC6)[nH]c5c4)ccc3c2)[nH]1)C1CCCCC1 [compound 388]
[2]
  EC50: < 1 nM

## COC(=O)N[C@H](C(=O)N1CCC[C@H]1c1ncc(-c2cnc(-c3ccc4cc(-c5cnc([C@@H]6CCCN6C(=O)[C@@H](NC(=O)OC)C(C)C)[nH]5)ccc4c3)nc2)[nH]1)C(C)C [compound 476]
Huh-7, HCV 1b replicon
  EC50: < 1 nM

## COC(=O)N[C@@H](C)C(=O)N1CCC[C@H]1c1nc2ccc(-c3ccc4cc(-c5ccc6nc([C@@H]7CCCN7C(=O)[C@H](C)NC(=O)OC)[nH]c6c5)ccc4c3)cc2[nH]1 [compound 278]
[1]
  EC50: < 1 nM

## COC(=O)N[C@H](C(=O)N1CCC[C@H]1c1ncc(-c2ccc3nc(-c4ccc(-c5cnc([C@@H]6CCCN6C(=O)[C@H](NC(=O)OC(C)(C)C)c6ccccc6)[nH]5)cc4)oc3c2)[nH]1)C(C)C [compound 254]
[1]
  EC50: < 1 nM

## COC(=O)N[C@H](C(=O)N1CCC[C@H]1c1nc(-c2ccc3cc(-c4ccc(-c5cnc([C@@H]6CCCN6C(=O)[C@@H](c6ccccc6)N6CCCC6)[nH]5)cc4)ccc3c2)c[nH]1)C(C)C [compound 10]
[1]
  EC50: < 1 nM

## COC(=O)N[C@H](C(=O)N1CCN(C(C)=O)C[C@H]1c1ncc(-c2ccc(-c3ccc4cc(-c5cnc([C@@H]6CCCN6C(=O)[C@@H](NC(=O)OC)C6CCOCC6)[nH]5)ccc4n3)cc2)[nH]1)C(C)C [compound 495]
Huh-7, HCV 1b replicon
  EC50: < 1 nM

## COC(=O)N[C@H](C(=O)N1CCC[C@H]1c1ncc(-c2ccc3cc(-c4ccc(-c5cnc([C@@H]6CCCN6C(=O)[C@H](NC(=O)OC)c6ccccc6)[nH]5)nn4)ccc3c2)[nH]1)[C@@H](C)OC [compound 500]
Huh-7, HCV 1b replicon
  EC50: < 1 nM

## CN(C)[C@@H](C(=O)N1CCC[C@H]1c1nc(-c2ccc3nc(C45CCC(c6cnc([C@@H]7CCCN7C(=O)[C@@H](c7ccccc7)N(C)C)[nH]6)(CC4)CC5)ccc3c2)c[nH]1)c1ccccc1 [compound 264]
[1]
  EC50: 1 to 9.9 nM

## COC(=O)N[C@H](C(=O)N1CCC[C@H]1c1ncc(-c2ccc3cc(-c4ccc(-c5cnc([C@@H]6COCCN6C(=O)[C@H](NC(=O)OC)c6ccccc6)[nH]5)cc4)ccc3c2)[nH]1)[C@@H](C)OC [compound 323]
[2]
  EC50: < 1 nM

## COC(=O)N[C@H](C(=O)N1CCC[C@H]1c1ncc(-c2ccc3cc(-c4ccc5nc([C@@H]6CCCN6C(=O)[C@@H](NC(=O)OC)[C@@H](C)OC)[nH]c5c4)ccc3c2)[nH]1)C(C)C [compound 525]
Huh-7, HCV 1b replicon
  EC50: < 1 nM

## COC(=O)N[C@H](C(=O)N1CCC[C@H]1C(=O)N[C@@H](C)c1ccc(-c2ccc3cc(-c4cnc([C@@H]5CCCN5C(=O)[C@@H](NC(=O)OC)C5CCOCC5)[nH]4)ccc3c2)cc1)C1CCOCC1 [compound 559]
Huh-7, HCV 1b replicon
  EC50: < 1 nM

## CNC(=O)N[C@@H](C(=O)N1CCC[C@H]1c1ncc(-c2ccc3nc(-c4ccc(-c5cnc([C@@H]6CCCN6C(=O)[C@@H](NC(=O)OC)C(C)C)[nH]5)cc4)oc3c2)[nH]1)c1ccccc1 [compound 251]
[1]
  EC50: < 1 nM

## COC(=O)N[C@H](C(=O)N1CCOC[C@H]1c1ncc(-c2ccc(-c3ccc4cc(-c5cnc([C@@H]6COCCN6C(=O)[C@@H](NC(=O)OC)C(C)C)[nH]5)ccc4c3)cc2)[nH]1)C(C)C [compound 170]
[1]
  EC50: < 1 nM

## COC(=O)N[C@H](C(=O)N1C[C@H](O)C[C@H]1c1ncc(-c2ccc(-c3ccc4cc(-c5cnc([C@@H]6CCCN6C(=O)[C@@H](NC(=O)OC)C6CCOCC6)[nH]5)ccc4n3)cc2)[nH]1)C(C)C [compound 147]
[1]
  EC50: < 1 nM

## COC(=O)N[C@H](C(=O)N1CCC[C@H]1c1nc(-c2cnc3cc(-c4ccc(-c5cnc([C@@H]6CCCN6C(=O)[C@@H](NC(=O)OC)C(C)C)[nH]5)cc4)ccc3c2)c[nH]1)C(C)C [compound 19]
[1]
  EC50: < 1 nM

## CC[C@H](C)[C@H](NC(=O)OC)C(=O)N1CCC[C@H]1c1ncc(-c2ccc3nc(-c4ccc(-c5cnc([C@@H]6CCCN6C(=O)[C@H](NC(=O)OC)c6ccccc6)[nH]5)cc4)ccc3c2)[nH]1 [compound 492]
Huh-7, HCV 1b replicon
  EC50: < 1 nM

## COC(=O)N[C@H](C(=O)N1CCC[C@H]1c1nc(-c2ccc3cc(-c4ccc(-c5cnc([C@@H]6CCCN6C(=O)[C@@H](NC(=O)OC)C(C)C)[nH]5)cc4)cnc3c2)c[nH]1)C(C)C [compound 21]
[1]
  EC50: < 1 nM

## CC[C@H](C)[C@H](NC(=O)OC)C(=O)N1CCC[C@H]1c1ncc(-c2ccc3cc(-c4ccc5nc([C@@H]6COCCN6C(=O)[C@@H](NC(=O)OC)[C@@H](C)CC)[nH]c5c4)ccc3c2)[nH]1 [compound 353]
[2]
  EC50: < 1 nM

## COC(=O)N[C@H](C(=O)N1CCC[C@H]1c1nc2ccc(-c3ccc4cc(-c5cnc([C@@H]6CCCN6C(=O)[C@@H](NC(=O)OC)[C@@H](C)OC)[nH]5)ccc4c3)nc2[nH]1)C(C)C [compound 532]
Huh-7, HCV 1b replicon
  EC50: < 1 nM

## COC(=O)N[C@H](C(=O)N1CCC[C@H]1c1ncc(-c2ccc3c(-c4ccc5[nH]c([C@@H]6CCCN6C(=O)[C@@H](NC(=O)OC)C(C)C)nc5c4)cccc3c2)[nH]1)C(C)C [compound 214]
[1]
  EC50: 10 to 999 nM

## COC(=O)N[C@H](C(=O)N1CCC[C@H]1CNC(=O)c1ccc(-c2ccc3cc(-c4cnc([C@@H]5CCCN5C(=O)[C@@H](NC(=O)OC)C(C)C)[nH]4)ccc3n2)cc1)C(C)C [compound 544]
Huh-7, HCV 1b replicon
  EC50: < 1 nM

## COC(=O)N[C@H](C(=O)N1CCC[C@H]1c1nc(-c2ccc3cc(-c4ccc(-c5cnc([C@@H]6CCCN6C(=O)[C@@H](NC(=O)OC)C(C)C)[nH]5)cc4)ncc3c2)c[nH]1)C(C)C [compound 22]
[1]
  EC50: < 1 nM

## COC(=O)N[C@H](C(=O)N1CCC[C@H]1c1nc(-c2ccc3nc(-c4ccc(-c5cnc([C@@H]6CCCN6C(=O)[C@@H](NC(=O)OC)C6CCOCC6)[nH]5)cc4)ccc3c2)c[nH]1)C(C)C [compound 42]
[1]
  EC50: < 1 nM

## COC(=O)N[C@H](C(=O)N1CCC[C@H]1CNC(=O)c1ccc2cc(-c3ccc(-c4cnc([C@@H]5CCCN5C(=O)[C@@H](NC(=O)OC)[C@@H](C)OC)[nH]4)cc3)ccc2c1)[C@@H](C)OC [compound 575]
Huh-7, HCV 1b replicon
  EC50: < 1 nM

## COC(=O)N[C@@H](C(=O)N1CCC[C@H]1CNC(=O)c1cnc2cc(-c3ccc(-c4cnc([C@@H]5CCCN5C(=O)[C@H](NC(=O)OC)c5ccccc5)[nH]4)cc3)ccc2c1)c1ccccc1 [compound 553]
Huh-7, HCV 1b replicon
  EC50: < 1 nM

## COC(=O)N[C@H](C(=O)N1CCC[C@H]1c1ncc(-c2ccc3nc(-c4ccc(-c5cnc([C@@H]6CN(C(=O)OC)CCN6C(=O)[C@@H](NC(=O)OC)C(C)C)[nH]5)cc4)ccc3c2)[nH]1)C(C)C [compound 469]
Huh-7, HCV 1b replicon
  EC50: < 1 nM

## COC(=O)N[C@@H](C)C(=O)N1CCC[C@H]1c1nc(-c2ccc3nc(-c4ccc(-c5cnc([C@@H]6CCCN6C(=O)[C@@H](NC(=O)OC)C(C)C)[nH]5)cc4)ccc3c2)c[nH]1 [compound 41]
[1]
  EC50: < 1 nM

## COC(=O)N[C@H](C(=O)N1CCC[C@H]1c1ncc(-c2ccc(-c3ccc4cc(-c5c[nH]c([C@@H]6CCCN6C(=O)[C@H](NC(=O)OC)c6ccccc6)n5)ccc4n3)cc2)[nH]1)C1CCOCC1 [compound 90]
[1]
  EC50: < 1 nM

## COC(=O)N[C@H](C(=O)N1CCC[C@H]1c1ncc(-c2ccc3cc(-c4ccc5nc([C@@H]6CCCN6C(=O)[C@@H](NC(=O)OC)C6CCOCC6)[nH]c5n4)ccc3c2)[nH]1)C1CCOCC1 [compound 205]
[1]
  EC50: < 1 nM

## COC(=O)N[C@H](C(=O)N1CCC[C@H]1c1nc(-c2ccc3cc(-c4ccc(-c5cnc([C@@H]6CCCN6C(=O)[C@H](NC(=O)N6CC[C@H](O)C6)c6ccccc6)[nH]5)cc4)ccc3c2)c[nH]1)C(C)C [compound 16]
[1]
  EC50: < 1 nM

## COC(=O)N[C@H](C(=O)N1CCC[C@H]1c1ncc(-c2ccc(-c3nc4cc(-c5cnc([C@@H]6CCCN6C(=O)[C@@H](NC(=O)OC)C6CC6)[nH]5)ccc4o3)cc2)[nH]1)C1CC1 [compound 239]
[1]
  EC50: < 1 nM

## COC(=O)N[C@H](C(=O)N1CCC[C@H]1c1ncc(-c2ccc(-c3ccc4cc(-c5c[nH]c([C@@H]6CCCN6C(=O)[C@@H](NC(=O)OC)C6CCOCC6)n5)ccc4c3)nc2)[nH]1)C(C)C [compound 52]
[1]
  EC50: < 1 nM

## COC(=O)N[C@H](C(=O)N1CCC[C@H]1c1nc(-c2ccc3cc(-c4ccc(-c5cnc([C@@H]6CCCN6C(=O)[C@@H](NC(=O)OC6CCOCC6)c6ccccc6)[nH]5)cc4)ccc3c2)c[nH]1)C1CCOCC1 [compound 112]
[1]
  EC50: < 1 nM

## O=C(N[C@@H](C(=O)N1CCC[C@H]1c1ncc(-c2ccc3nc(-c4ccc5nc([C@@H]6CCCN6C(=O)[C@H](NC(=O)OC6CCOCC6)c6ccccc6)[nH]c5c4)ccc3c2)[nH]1)c1ccccc1)OC1CCOCC1 [compound 508]
Huh-7, HCV 1b replicon
  EC50: < 1 nM

## COC(=O)N[C@H](C(=O)N1CCC[C@H]1c1ncc(-c2ccc3cc(-c4ccc5nc([C@@H]6COCCN6C(=O)[C@@H](NC(=O)OC)[C@@H](C)O)[nH]c5c4)ccc3c2)[nH]1)[C@@H](C)O [compound 355]
[2]
  EC50: < 1 nM

## COC(=O)N[C@H](C(=O)N1CCC[C@H]1c1ncc(-c2ccc3cc(-c4ccc5nc([C@@H]6CCCN6C(=O)[C@@H](NC(=O)OC)C6CCCC6)[nH]c5c4)ccc3c2)[nH]1)C1CCCC1 [compound 218]
[1]
  EC50: < 1 nM
